We go through 16 molecules from patent US11542259B2, “Compounds for the treatment of kinase-dependent disorders” (Exelixis, Inc., priority 2018, dated 2023).

Bounds are passed on as bounds.

One assay has as its target AXL (Homo sapiens (Human), UniProt P30530). Description: AXL autophosphorylation ELISA in A-172 cells. It is filed as cell-based. The conditions noted are these: cellular, Gas6 stimulated. Put shortly:
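Serum-starved (24 h) A-172 glioblastoma cells pretreated 1 h with compounds (8-point curve, 0.3% DMSO), then stimulated 15 min with 1 μg/mL Gas6. Lysate phospho-AXL measured by sandwich ELISA against a phospho-AXL standard; IC50 from 4-parameter logistic fit between DMSO and reference-inhibitor controls.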
A general note: ELISA stands for enzyme-linked immunosorbent assay.

The target of a further assay is Met (Homo sapiens (Human), UniProt P08581). Description: Met autophosphorylation ELISA in PC-3 cells. In kind it is cell-based. The settings on record: cellular, HGF stimulated, read-out: c-Met IC50. The method, boiled down:
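Phospho-Met (panTyr) sandwich ELISA on lysates of PC-3 cells given 100 ng/mL HGF for 10 min after 1 h compound exposure (8-point curve, 0.3% DMSO) following 3 h serum starvation. Normalised to HGF-stimulated DMSO and reference-inhibitor wells; 4-parameter logistic IC50.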

Assay [1] has as its target Human Axl (residues H473-A894 with Q764R) (Homo sapiens (Human), UniProt P30530, Q764R). Nature of the assay: Human AXL kinase assay (33P radiometric, KinaseProfiler). In kind it is biochemical. The settings on record: 10 μM ATP.
In assay [2] the target is Human Mer (residues R557-E882 with H628Q and R794A) (Homo sapiens (Human), UniProt Q12866). Nature of the assay: Human Mer kinase assay (33P radiometric, KinaseProfiler). The settings on record: 10 μM ATP. It is filed as biochemical.
Human Mer (residues R557-E882 with H628Q and R794A), sequence (Q12866 557-882, stated change not applied): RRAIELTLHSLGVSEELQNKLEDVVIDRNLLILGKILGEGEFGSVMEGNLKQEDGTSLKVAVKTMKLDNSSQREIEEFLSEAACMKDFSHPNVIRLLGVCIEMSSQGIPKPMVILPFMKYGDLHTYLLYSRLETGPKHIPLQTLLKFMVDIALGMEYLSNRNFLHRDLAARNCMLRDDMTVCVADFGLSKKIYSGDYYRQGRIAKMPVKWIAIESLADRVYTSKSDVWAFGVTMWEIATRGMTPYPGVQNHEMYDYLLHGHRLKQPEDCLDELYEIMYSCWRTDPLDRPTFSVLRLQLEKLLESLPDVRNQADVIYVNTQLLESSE

Human Axl (residues H473-A894 with Q764R), sequence (P30530 473-894 Q764R): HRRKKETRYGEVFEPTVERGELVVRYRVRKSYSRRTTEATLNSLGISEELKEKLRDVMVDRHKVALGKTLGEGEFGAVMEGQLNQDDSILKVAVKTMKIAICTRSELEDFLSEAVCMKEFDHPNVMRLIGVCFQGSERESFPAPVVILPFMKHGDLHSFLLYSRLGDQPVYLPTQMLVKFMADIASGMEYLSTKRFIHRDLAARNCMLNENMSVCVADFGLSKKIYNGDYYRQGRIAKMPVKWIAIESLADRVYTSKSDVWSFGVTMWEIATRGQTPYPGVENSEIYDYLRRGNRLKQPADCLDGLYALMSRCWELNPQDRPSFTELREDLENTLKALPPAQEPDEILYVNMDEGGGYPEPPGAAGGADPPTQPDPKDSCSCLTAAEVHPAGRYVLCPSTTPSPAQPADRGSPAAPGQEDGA
AXL, sequence (P30530 26-894): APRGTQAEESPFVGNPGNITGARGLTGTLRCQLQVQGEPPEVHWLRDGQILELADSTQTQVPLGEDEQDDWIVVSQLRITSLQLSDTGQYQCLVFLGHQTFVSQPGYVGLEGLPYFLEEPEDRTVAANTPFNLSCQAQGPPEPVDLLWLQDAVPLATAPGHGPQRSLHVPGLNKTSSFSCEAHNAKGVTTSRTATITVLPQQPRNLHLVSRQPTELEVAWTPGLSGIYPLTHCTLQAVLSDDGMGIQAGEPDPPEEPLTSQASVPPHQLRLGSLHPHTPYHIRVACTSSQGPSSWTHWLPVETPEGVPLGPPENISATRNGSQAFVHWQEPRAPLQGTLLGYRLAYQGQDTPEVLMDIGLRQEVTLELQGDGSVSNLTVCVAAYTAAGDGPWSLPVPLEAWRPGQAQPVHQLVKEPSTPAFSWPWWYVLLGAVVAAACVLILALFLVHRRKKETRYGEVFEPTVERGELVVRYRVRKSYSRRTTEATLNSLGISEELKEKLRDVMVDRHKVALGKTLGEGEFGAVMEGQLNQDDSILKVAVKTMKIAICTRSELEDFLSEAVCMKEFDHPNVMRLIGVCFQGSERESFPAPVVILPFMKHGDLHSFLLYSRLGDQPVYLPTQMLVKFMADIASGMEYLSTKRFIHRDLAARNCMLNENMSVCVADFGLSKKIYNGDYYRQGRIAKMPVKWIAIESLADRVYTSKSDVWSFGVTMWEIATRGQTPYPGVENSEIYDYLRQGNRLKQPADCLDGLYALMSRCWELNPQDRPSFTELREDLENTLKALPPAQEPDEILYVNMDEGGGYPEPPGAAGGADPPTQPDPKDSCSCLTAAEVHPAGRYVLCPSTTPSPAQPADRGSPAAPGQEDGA
Met, sequence (P08581 25-1390): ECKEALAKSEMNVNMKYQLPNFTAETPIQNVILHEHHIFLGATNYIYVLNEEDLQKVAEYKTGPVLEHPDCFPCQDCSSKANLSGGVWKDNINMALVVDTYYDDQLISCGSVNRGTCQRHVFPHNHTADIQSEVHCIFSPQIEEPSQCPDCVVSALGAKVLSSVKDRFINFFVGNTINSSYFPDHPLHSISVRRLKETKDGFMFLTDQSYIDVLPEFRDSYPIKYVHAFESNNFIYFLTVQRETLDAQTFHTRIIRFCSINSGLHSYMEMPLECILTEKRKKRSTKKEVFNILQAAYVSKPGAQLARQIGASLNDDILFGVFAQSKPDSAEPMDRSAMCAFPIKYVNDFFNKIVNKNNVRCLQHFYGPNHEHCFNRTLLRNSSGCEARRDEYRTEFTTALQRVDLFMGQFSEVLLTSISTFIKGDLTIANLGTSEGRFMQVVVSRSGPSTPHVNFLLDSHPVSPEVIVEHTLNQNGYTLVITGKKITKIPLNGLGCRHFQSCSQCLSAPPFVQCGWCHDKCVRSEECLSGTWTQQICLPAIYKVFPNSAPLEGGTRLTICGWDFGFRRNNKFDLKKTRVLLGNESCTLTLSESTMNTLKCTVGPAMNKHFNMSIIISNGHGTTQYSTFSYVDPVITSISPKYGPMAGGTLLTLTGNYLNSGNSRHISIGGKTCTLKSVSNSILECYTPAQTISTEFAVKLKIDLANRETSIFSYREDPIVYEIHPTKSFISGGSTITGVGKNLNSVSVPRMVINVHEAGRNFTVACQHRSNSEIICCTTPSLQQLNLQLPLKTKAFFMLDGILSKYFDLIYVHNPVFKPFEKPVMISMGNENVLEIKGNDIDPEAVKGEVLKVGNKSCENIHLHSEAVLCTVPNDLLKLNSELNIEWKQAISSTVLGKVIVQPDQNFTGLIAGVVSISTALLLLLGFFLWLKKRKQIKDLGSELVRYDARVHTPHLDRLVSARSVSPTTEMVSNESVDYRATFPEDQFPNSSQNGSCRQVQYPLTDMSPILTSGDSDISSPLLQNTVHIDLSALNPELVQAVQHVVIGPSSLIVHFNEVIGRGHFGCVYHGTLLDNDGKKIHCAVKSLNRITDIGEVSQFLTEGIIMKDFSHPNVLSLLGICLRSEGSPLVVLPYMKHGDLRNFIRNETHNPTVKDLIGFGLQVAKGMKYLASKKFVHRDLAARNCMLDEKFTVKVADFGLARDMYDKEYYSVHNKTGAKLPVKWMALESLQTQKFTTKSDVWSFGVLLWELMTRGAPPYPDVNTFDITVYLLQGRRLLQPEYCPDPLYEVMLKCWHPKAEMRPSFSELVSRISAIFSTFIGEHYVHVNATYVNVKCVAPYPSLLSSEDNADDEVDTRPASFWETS

As a reminder, the IC50 is the point on the concentration scale where inhibition reaches its midpoint. Regarding `COC(=O)c1cc2c(Oc3ccc(NC(=O)C4(C(=O)Nc5ccc(F)cc5)CC4)cc3Cl)ccnc2cc1OC` [Compound 128, methyl 4-[2-chloro-4-[[1-[(4-fluorophenyl)carbamoyl]cyclopropanecarbonyl]amino]phenoxy]-7-methoxyquinoline-6-carboxylate], the IC50 at AXL is 0.01 to 0.1 µM; on Met, 0.01 to 0.1 µM; in assay [1], no more than 0.01 µM; in assay [2] it was no more than 0.01 µM.
In the case of `COC(=O)c1cc2c(Oc3ccc(NC(=O)C4(C(=O)Nc5ccc(F)cc5)CC4)cc3F)ccnc2cc1OC` [Compound 129, methyl 4-[2-fluoro-4-[[1-[(4-fluorophenyl)carbamoyl]cyclopropanecarbonyl]amino]phenoxy]-7-methoxyquinoline-6-carboxylate], the IC50 on AXL was no more than 0.01 µM; at Met it was 0.01 to 0.1 µM; in assay [1], no more than 0.01 µM; in assay [2], no more than 0.01 µM.
For the molecule `COc1cc2nccc(Oc3ccc(NC(=O)C4(C(=O)Nc5ccc(F)cc5)CC4)cc3Cl)c2cc1C(=O)O` [Compound 130, 4-[2-chloro-4-[[1-[(4-fluorophenyl)carbamoyl]cyclopropanecarbonyl]amino]phenoxy]-7-methoxyquinoline-6-carboxylic acid], the IC50 against AXL was greater than 0.3 µM; on Met, greater than 0.3 µM; in assay [1], 0.01 to 0.1 µM; in assay [2], 0.01 to 0.1 µM.
As for `COc1cc2nccc(Oc3ccc(NC(=O)C4(C(=O)Nc5ccc(F)cc5)CC4)cc3F)c2cc1C(=O)O` [Compound 131, 4-[2-fluoro-4-[[1-[(4-fluorophenyl)carbamoyl]cyclopropanecarbonyl]amino]phenoxy]-7-methoxyquinoline-6-carboxylic acid], the IC50 against AXL was greater than 0.3 µM; at Met, greater than 0.3 µM; in assay [1], 0.01 to 0.1 µM; in assay [2] it was 0.01 to 0.1 µM.
Consider `COc1cc2nccc(Oc3ccc(NC(=O)C4(C(=O)Nc5ccc(F)cc5)CC4)cc3Cl)c2cc1C(N)=O` [Compound 132, 1-N′-[4-(6-carbamoyl-7-methoxyquinolin-4-yl)oxy-3-chlorophenyl]-1-N-(4-fluorophenyl)cyclopropane-1,1-dicarboxamide], for which the IC50 (on AXL; on Met; in assay [1]; in assay [2]) was no more than 0.01 µM each time.
Regarding `COc1cc2nccc(Oc3ccc(NC(=O)C4(C(=O)Nc5ccc(F)cc5)CC4)cc3F)c2cc1C(N)=O` [Compound 133, 1-N′-[4-(6-carbamoyl-7-methoxyquinolin-4-yl)oxy-3-fluorophenyl]-1-N-(4-fluorophenyl)cyclopropane-1,1-dicarboxamide], the IC50 (against AXL; on Met; in assay [1]; in assay [2]) was no more than 0.01 µM each time.
For the molecule `CNC(=O)c1cc2c(Oc3ccc(NC(=O)C4(C(=O)Nc5ccc(F)cc5)CC4)cc3Cl)ccnc2cc1OC` [Compound 134, 1-N′-[3-chloro-4-[7-methoxy-6-(methylcarbamoyl)quinolin-4-yl]oxyphenyl]-1-N-(4-fluorophenyl)cyclopropane-1,1-dicarboxamide], the IC50 (at AXL; on Met; in assay [1]; in assay [2]) was no more than 0.01 µM each time.
As to `CNC(=O)c1cc2c(Oc3ccc(NC(=O)C4(C(=O)Nc5ccc(F)cc5)CC4)cc3F)ccnc2cc1OC` [Compound 135, 1-N′-[3-fluoro-4-[7-methoxy-6-(methylcarbamoyl)quinolin-4-yl]oxyphenyl]-1-N-(4-fluorophenyl)cyclopropane-1,1-dicarboxamide], the IC50 (on AXL; at Met; in assay [1]; in assay [2]) was no more than 0.01 µM in each case.
As for `COC(=O)c1cc2nccc(Oc3ccc(NC(=O)C4(C(=O)Nc5ccc(F)cc5)CC4)cc3)c2cc1C` [Compound 140, methyl 4-[4-[[1-[(4-fluorophenyl)carbamoyl]cyclopropanecarbonyl]amino]phenoxy]-6-methylquinoline-7-carboxylate], the IC50 against AXL is 0.01 to 0.1 µM; on Met it was 0.01 to 0.1 µM; in assay [1] it was 0.01 to 0.1 µM; in assay [2] it was no more than 0.01 µM.
As for `Cc1cc2c(Oc3ccc(NC(=O)C4(C(=O)Nc5ccc(F)cc5)CC4)cc3)ccnc2cc1C(N)=O` [Compound 142, 1-N-[4-(7-carbamoyl-6-methylquinolin-4-yl)oxyphenyl]-1-N′-(4-fluorophenyl)cyclopropane-1,1-dicarboxamide], the half-maximal inhibitory concentration (IC50) is 0.01 to 0.1 µM at AXL, 0.01 to 0.1 µM at Met, no more than 0.01 µM in assay [1] and no more than 0.01 µM in assay [2].
Take `CNC(=O)c1cc2nccc(Oc3ccc(NC(=O)C4(C(=O)Nc5ccc(F)cc5)CC4)cc3)c2cc1C` [Compound 143, 1-N′-(4-fluorophenyl)-1-N-[4-[6-methyl-7-(methylcarbamoyl)quinolin-4-yl]oxyphenyl]cyclopropane-1,1-dicarboxamide]: the IC50 on AXL is 0.01 to 0.1 µM; on Met it was 0.01 to 0.1 µM; in assay [1], 0.01 to 0.1 µM; in assay [2], no more than 0.01 µM.
With `COC(=O)c1cc2nccc(Oc3ccc(NC(=O)C4(C(=O)Nc5ccc(F)cc5)CC4)cc3)c2cc1OC` [Compound 150, methyl 4-[4-[[1-[(4-fluorophenyl)carbamoyl]cyclopropanecarbonyl]amino]phenoxy]-6-methoxyquinoline-7-carboxylate], the IC50 is 0.01 to 0.1 µM on AXL, 0.01 to 0.1 µM at Met, 0.01 to 0.1 µM in assay [1] and no more than 0.01 µM in assay [2].
As for `COc1cc2c(Oc3ccc(NC(=O)C4(C(=O)Nc5ccc(F)cc5)CC4)cc3)ccnc2cc1C(N)=O` [Compound 152, 1-N-[4-(7-carbamoyl-6-methoxyquinolin-4-yl)oxyphenyl]-1-N′-(4-fluorophenyl)cyclopropane-1,1-dicarboxamide], the IC50 at AXL is 0.01 to 0.1 µM; on Met, 0.1 to 0.3 µM; in assay [1], 0.01 to 0.1 µM; in assay [2] it was no more than 0.01 µM.
On to `CNC(=O)c1cc2nccc(Oc3ccc(NC(=O)C4(C(=O)Nc5ccc(F)cc5)CC4)cc3)c2cc1OC` [Compound 153, 1-N′-(4-fluorophenyl)-1-N-[4-[6-methoxy-7-(methylcarbamoyl)quinolin-4-yl]oxyphenyl]cyclopropane-1,1-dicarboxamide], for which the IC50 on AXL was 0.01 to 0.1 µM; at Met it was 0.1 to 0.3 µM; in assay [1] it was 0.01 to 0.1 µM; in assay [2], no more than 0.01 µM.
On to `COC(=O)c1ccc2c(Oc3ccc(NC(=O)C4(C(=O)Nc5ccc(F)cc5)CC4)cc3)ccnc2c1` [Compound 162, methyl 4-[4-[[1-[(4-fluorophenyl)carbamoyl]cyclopropanecarbonyl]amino]phenoxy]quinoline-7-carboxylate], for which the IC50 is greater than 0.3 µM on AXL, 0.1 to 0.3 µM on Met, 0.01 to 0.1 µM in assay [1] and no more than 0.01 µM in assay [2].
`NC(=O)c1ccc2c(Oc3ccc(NC(=O)C4(C(=O)Nc5ccc(F)cc5)CC4)cc3)ccnc2c1` [Compound 164, 1-N-[4-(7-carbamoylquinolin-4-yl)oxyphenyl]-1-N′-(4-fluorophenyl)cyclopropane-1,1-dicarboxamide]: the half-maximal inhibitory concentration (IC50) (at AXL; at Met; in assay [1]; in assay [2]) was no more than 0.01 µM each time.
